From US10604527B2, “Pyrazine compounds for the treatment of hepatitis B infection” (Hoffmann-La Roche Inc., priority 2016, dated 2020)

Each compound was assayed on HBV (assay: HBV inhibition assay in HepG2.2.15 cells (extracellular HBV DNA by qPCR)). Conditions: Hepatitis B virus, 120 h, extracellular HBV DNA in culture supernatant by qPCR, five days after compound treatment.
Type: cell-based
Procedure: HepG2.2.15 is a stably-transfected cell line containing the HBV genome. It is derived from the hepatoblastoma cell line Hep G2 (American Type Culture Collection, ATCC® HB-8065™) by the published procedures described in reference: M A Selles et al. Proc. Natl. Acad. Sci. USA 1987, 84, 1005-1009. The cell line was maintained in Dulbecco's modified Eagle's medium (DMEM)-F12 medium supplemented with 10% fetal bovine serum, 20 mM L-glutamine, 0.1 mM NEAA, 50 U/mL penicillin, 50 μg/mL streptomycin, and 0.3 mg/mL of G418.
HepG2.2.15 cells were seeded into 96-well plates at a density of 3×10^4 cells per well in 100 μL DMEM/F12 media (Life Science, Cat. #: 11320-033) supplemented with 2.5% fetal bovine serum, 20 mM L-glutamine, 0.1 mM NEAA, 50 U/mL penicillin, 50 U/mL streptomycin and cultured overnight at 37° C. The test compounds were serially half-log diluted in DMSO, then diluted 100 times in culture media. 100 μL diluted solution of tested compounds were added into the plates to reach 0.5% final concentration of DMSO in every well. Five days after compound treatment, culture supernatant was collected for further analysis.
For quantitative PCR detection of extracellular HBV DNA, culture supernatant was processed by 500 μg/mL Proteinase K (Sigma, Cat. #: P2308) digestion at 50° C. for 1 hour. After heat inactivation of the enzyme at 95° C. for 15 minutes, the samples were subjected to HBV DNA quantification by qPCR. The effective compound concentration at which HBV replication inhibited by 50% (EC50) was determined.

Row | Compound | EC50 [nM]
1 | C[C@H]1Cn2ncc(S(=O)(=O)N[C@@H]3CCOC3)c2CN1C(=O)Nc1cc(F)c(F)c(F)c1 [Example 30, (6S)-6-methyl-3-[[(3R)-tetrahydrofuran-3-yl]sulfamoyl]-N-(3,4,5-trifluorophenyl)-6,7-dihydro-4H-pyrazolo[1,5-a]pyrazine-5-carboxamide] | 156
2 | C[C@H]1Cn2ncc(S(=O)(=O)N3CC(F)(F)C3)c2CN1C(=O)Nc1cc(F)c(F)c(F)c1 [Example 31, (6S)-3-(3,3-difluoroazetidin-1-yl)sulfonyl-6-methyl-N-(3,4,5-trifluorophenyl)-6,7-dihydro-4H-pyrazolo[1,5-a]pyrazine-5-carboxamide] | 22
3 | C[C@H]1Cn2ncc(S(=O)(=O)N3CCOCC3)c2CN1C(=O)Nc1cc(F)c(F)c(F)c1 [Example 32, (6S)-6-methyl-3-morpholinosulfonyl-N-(3,4,5-trifluorophenyl)-6,7-dihydro-4H-pyrazolo[1,5-a]pyrazine-5-carboxamide] | 179
4 | C[C@H]1Cn2ncc(S(=O)(=O)N3CC[C@H](O)C3)c2CN1C(=O)Nc1cc(F)c(F)c(F)c1 [Example 33, (6S)-3-[(3S)-3-hydroxypyrrolidin-1-yl]sulfonyl-6-methyl-N-(3,4,5-trifluorophenyl)-6,7-dihydro-4H-pyrazolo[1,5-a]pyrazine-5-carboxamide] | 145
5 | C[C@H]1Cn2ncc(S(=O)(=O)C3CCC(O)C3)c2CN1C(=O)Nc1cc(F)c(F)c(F)c1 (stereo partly drawn) [Example 34, (6S)-3-(3-hydroxycyclopentyl)sulfonyl-6-methyl-N-(3,4,5-trifluorophenyl)-6,7-dihydro-4H-pyrazolo[1,5-a]pyrazine-5-carboxamide] | 96
6 | C[C@H]1Cn2ncc(N(C)C(=O)OCc3ccccc3)c2CN1C(=O)Nc1cc(F)c(F)c(F)c1 [Example 37, Benzyl N-methyl-N-[(6S)-6-methyl-5-[(3,4,5-trifluorophenyl)carbamoyl]-6,7-dihydro-4H-pyrazolo[1,5-a]pyrazin-3-yl]carbamate] | 475
7 | CC(=O)N(C)c1cnn2c1CN(C(=O)Nc1cc(F)c(F)c(F)c1)[C@@H](C)C2 [Example 38, (6S)-3-[acetyl(methyl)amino]-6-methyl-N-(3,4,5-trifluorophenyl)-6,7-dihydro-4H-pyrazolo[1,5-a]pyrazine-5-carboxamide] | 457
8 | COCCS(=O)(=O)N(C)c1cnn2c1CN(C(=O)Nc1cc(F)c(F)c(F)c1)[C@@H](C)C2 [Example 39, (6S)-3-[2-methoxyethylsulfonyl(methyl)amino]-6-methyl-N-(3,4,5-trifluorophenyl)-6,7-dihydro-4H-pyrazolo[1,5-a]pyrazine-5-carboxamide] | 664
9 | CCS(=O)(=O)N(C)c1cnn2c1CN(C(=O)Nc1cc(F)c(F)c(F)c1)[C@@H](C)C2 [Example 40, (6S)-3-[ethylsulfonyl(methyl)amino]-6-methyl-N-(3,4,5-trifluorophenyl)-6,7-dihydro-4H-pyrazolo[1,5-a]pyrazine-5-carboxamide] | 169
10 | C[C@H]1Cn2ncc(N(C)S(=O)(=O)C3CC3)c2CN1C(=O)Nc1cc(F)c(F)c(F)c1 [Example 41, (6S)-3-[cyclopropylsulfonyl(methyl)amino]-6-methyl-N-(3,4,5-trifluorophenyl)-6,7-dihydro-4H-pyrazolo[1,5-a]pyrazine-5-carboxamide] | 86
